Patent US11187660B2, “Fluorescent probes for monitoring voltage by photo-induced electron transfer” (The Regents of the University of California, priority 2011, dated 2021)
“And” between values parts separate entries of the source, which are not always exact repeats. Equal entries are not always repeated.

Columns and labels:
[1] = system: HEK293 cells; experiment: Voltage sensitivity of fluorescence in voltage-clamped HEK cells (whole-cell recording); format: cell-based, human; settings: for voltage sensitivity ΔF/F per 100 mV: HEK293 cells voltage-clamped at −60 mV holding potential
Source text: Membrane voltage of cells loaded with VF1.4.Cl or VF2.4.Cl were controlled by making tight-seal whole-cell recordings. Cells were maintained at a holding potential of −60 mV and stepped for 50 ms to various depolarizing and hyperpolarizing potentials (FIG. 5A), while simultaneously acquiring epifluorescence images. For both sensors, depolarizing steps result in fluorescence increases while hyperpolarizing steps decrease fluorescence intensity, in keeping with our proposed mechanism. […] For di-4-ANEPPS, typical values are 0.08-0.12% per mV. The larger changes for VF1.4.Cl and VF2.4.Cl compared to di-4-ANEPPS are somewhat expected, since a PeT-based voltage sensor samples the entire emission spectrum, whereas electrochromic dyes are limited to the edge of the spectrum only. For both probes, the voltage responses are linear across the physiologically relevant ranges of −100 mV to +100 mV. To assess the speed of the optical response to voltage, VF2.4.Cl signals were monitored in response to voltage steps of 100 mV from a holding potential of −60 mV.
We characterized the voltage sensitivity of all three indicators by making tight-seal whole-cell recordings of HEK293 cells stained with the VF sensors. Cells were voltage-clamped at −60 mV holding potential and sequentially stepped to depolarizing and hyperpolarizing potentials at 20-mV increments (FIG. 9B). For all three dyes, depolarizing steps produced fluorescence increases, whereas hyperpolarizing steps produced fluorescence decreases, in keeping with the proposed PeT mechanism. The fluorescence response is linear over the range of −100 mV to +100 mV (FIG. 9C), with voltage sensitivities ΔF/F per 100 mV of 20±1% for VF1.4.Cl and 25±1% for VF2.4.Cl. This statistically significant increase in voltage sensitivity (P<0.05, two-tailed Student t test) is expected upon increasing the length of the molecular wire, and is 2.5- to 4-times more sensitive than di-4-ANEPPS, which, in our hands, gives sensitivities of between 6% and 10% ΔF/F per 100 mV. […] To investigate the speed of response of VF probes, we again made whole-cell recordings of cells stained with VF2.4.Cl, applied 100-mV depolarizing steps from a holding potential of −60 mV, and recorded both the electrophysiological signals and the optical signals.
(§1) Electrophysiological recordings of HEK293 cells and cultured neurons were performed with an Axopatch 200A or 200B amplifier (Molecular Devices) at room temperature. The signals were digitized with Digidata 1332A and recorded with pCLAMP 9 software (Molecular Devices) on a PC. Analysis of electrophysiological data was done with AxoGraph X (AxoGraphX), pCLAMP 9, and/or ClampFit (Molecular Devices). For most experiments the extracellular solution consisted of (in mM) 145 NaCl, 20 glucose, 10 HEPES, 3 KCl, 2 CaCl2, 1 MgCl2 (pH 7.35, 310 mOsm). The intracellular solution contained (in mM) 115 potassium gluconate, 10 BAPTA tetrapotassium salt, 10 HEPES, 5 NaCl, 10 KCl, 2 ATP disodium salt, 0.3 GTP trisodium salt (pH 7.25, 290 mOsm).
For studies to determine excitation sensitivity of dyes, illumination was provided by a Polychrom IV light source (T.I.L.L. Photonics GMBH) with a mechanical shutter (Uniblitz VS25). For all other studies, light was provided by an Xenon arc lamp powered by an Optiquip Power supply (Optiquip) with a mechanical shutter controlled by a Lambda 10-2 controller (Sutter). […]

[2] = system: rat hippocampal neurons; experiment: Optical detection of evoked action potentials in cultured hippocampal neurons; format: cell-based
Protocol: To assay VF2.4.Cl's utility for monitoring neuronal activity, hippocampal neurons isolated from rats neonates were loaded with 2 μM VF2.4.Cl for 15 minutes, washed twice and imaged. […] Neurons were patched, current clamped, and injected with a small pulse (250-400 pA, 1-5 ms) to induce action potential firing. By using a high speed EMCCD camera, capable of sampling small regions of interest (ROI) at rates of approximately 2 kHz, enabled single trial optical detection of action potentials. An action potential with a total voltage change of ˜130 mV was well resolved optically and gave a ΔF/F of 24% with a signal-to-noise ratio of 16. Smaller spikes were detectable as well, a 100 mV change gave a ΔF/F of 15% with an SNR of 15. The slightly diminished sensitivity in neurons (0.15% per mV in neurons vs 0.25% per mV in HEK cells) can be explained primarily by the heterogeneous nature of the preparation; overlapping, non-excitable membranes loaded with VF2.4.Cl contribute to a non-responsive fluorescent signal which dilutes the responsive fraction.
To assess whether VF probes can detect action potentials in single trials, we used cultured rat hippocampal neurons. […] We then injected current into a neuron under whole-cell patch-clamp mode to trigger single action potentials and used a high-speed, back-illuminated EMCCD camera to track fast optical signals from VF2.4.Cl, enabling us to resolve action potentials in neurons in single sweeps (FIG. 13B). The optical trace matched the physiology trace and gave about a 20% ΔF/F increase in fluorescence and a 16:1 signal-to-noise ratio (SNR) in a single trial.
HEK293 cells were cultured in DMEM (CellGrow) supplemented with 10% FBS, 1% penicillin/streptomycin (Invitrogen) and plated on glassbottom culture dishes (35 mm dish, 14 mm microwell with No. 0 coverglass) (MatTek Corporation). Hippocampal neurons were dissected from postnatal day 0 or 1 rat pups and plated on poly-D-lysine-coated glassbottom culture dishes. Neuronal recordings were made 14-28 days in culture.
as §1
For voltage sensitivity measurements, regions of interest were drawn around clamped cells and the mean fluorescence measured in ImageJ or Slidebook. For HEK cells, background fluorescence was subtracted by measuring the fluorescence where no cells grew. For experiments in neurons, the background fluorescence was not subtracted. In all cases, ΔF/F was calculated by dividing the fluorescence signal by the average fluorescence for a baseline of 10-20 frames prior to stimulation.

SMILES	voltage sensitivity ΔF/F per 100 mV [1] [%]	sensitivity, fractional fluorescence change (ΔF/F) versus change in membrane potential ([1]; HEK cells, holding potential −60 mV)	SNR ([2]; 100 mV change)	ΔF/F for smaller spike ([2]; 100 mV change) [%]	signal-to-noise ratio ([2]; action potential ~130 mV, single trial)	sensitivity in neurons ([2]; rat hippocampal neurons) [% per mV]	ΔF/F increase in fluorescence for evoked action potential ([2]; single trial, 2 μM, EMCCD 2 kHz) [%]	ΔF/F for action potential ([2]; total voltage change ~130 mV, single trial, 2 μM) [%]
CN(C)c1ccc(/C=C/c2ccc(/C=C/c3ccc(-c4c5cc(Cl)c(=O)cc-5oc5cc(O)c(Cl)cc45)c(S(=O)(=O)O)c3)cc2)cc1 [VF2.1.Cl, 5-(4-(4-(dimethyllamino)styryl)styryl)-2-(2,7-dichloro-6-hydroxy-3-oxo-3H-xanthen-9-yl)benzenesulfonic acid]	27±1	–	–	–	–	–	–	–
CCCCN(CCCC)c1ccc(/C=C/c2ccc(/C=C/c3ccc(-c4c5cc(Cl)c(=O)cc-5oc5cc(O)c(Cl)cc45)c(S(=O)(=O)O)c3)cc2)cc1 [VF2.4.Cl, 5-(4-(4-(dibutylamino)styryl)styryl)-2-(2,7-dichloro-6-hydroxy-3-oxo-3H-xanthen-9-yl)benzenesulfonic acid]	25±1	0.25±0.01 % per mV and 0.25 % per mV	15	15	16	0.15	~20	24
